Measurements: ChEMBL document CHEMBL1201862, “PubChem BioAssay data set” (2004)
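Growth conditions: 96-well plates. Treatment: test compound, 48 hours, 5 concentrations. Analysis: linear interpolation between bracketing concentrations; unreached endpoints set to highest concentration. At the GI50, growth is halved.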 Active and inactive are the calls of the source. No stated cut-off is given here; in the data, active = GI50 up to about 1.1 µM and inactive = higher.

What was measured:
Assay in all cases: growth of human tumour cells (NCI), 48 h
[1] = system: RXF 393
[2] = system: CAKI-1
[3] = system: MDA-N
[4] = system: K562
[5] = system: HCC 2998
[6] = system: 786-0
[7] = system: SNB-19
[8] = system: NCI/ADR-RES
[9] = system: A549
[10] = system: PC-3
[11] = system: CCRF-CEM
[12] = system: SK-MEL-5
[13] = system: EKVX
[14] = system: TK-10
[15] = system: M14
[16] = system: SNB-75
[17] = system: HCT-15
[18] = system: NCI-H460
[19] = system: OVCAR-3
[20] = system: KM12
[21] = system: SR
[22] = system: MOLT-4
[23] = system: DU-145
[24] = system: SN12C
[25] = system: OVCAR-8
[26] = system: HCT-116
[27] = system: SK-OV-3
[28] = system: UACC-257
[29] = system: SF-268
[30] = system: ACHN
[31] = system: Hs-578T
[32] = system: Malme-3M
[33] = system: UACC-62
[34] = system: SF-295
[35] = system: MDA-MB-231
[36] = system: COLO 205
[37] = system: IGROV-1
[38] = system: BT-549
[39] = system: HOP-62
[40] = system: OVCAR-5
[41] = system: LOX IMVI
[42] = system: T47D
[43] = system: SF-539
[44] = system: SK-MEL-2
[45] = system: MCF7
[46] = system: HL-60
[47] = system: UO-31
[48] = system: NCI-H522
[49] = system: NCI-H23
[50] = system: A498
[51] = system: U-251
[52] = system: SK-MEL-28
[53] = system: OVCAR-4
[54] = system: SW-620
[55] = system: NCI-H226
[56] = system: MDA-MB-435
[57] = system: RPMI-8226
[58] = system: HT-29

## CCOC(=O)N/N=C(\CC)OCC
[1]
  GI50: > 100 µM (inactive)
[2]
  GI50: > 100 µM (inactive)
[3]
  GI50: > 100 µM (inactive)
[4]
  GI50: > 100 µM (inactive)
[5]
  GI50: > 100 µM (inactive)
[6]
  GI50: > 100 µM (inactive)
[7]
  GI50: > 100 µM (inactive)
[8]
  GI50: > 100 µM (inactive)
[9]
  GI50: > 100 µM (inactive)
[10]
  GI50: > 100 µM (inactive)
[11]
  GI50: > 100 µM (inactive)
[12]
  GI50: > 100 µM (inactive)
[13]
  GI50: > 100 µM (inactive)
[14]
  GI50: > 100 µM (inactive)
[15]
  GI50: > 100 µM (inactive)
[16]
  GI50: > 100 µM (inactive)
[17]
  GI50: > 100 µM
[18]
  GI50: > 100 µM (inactive)
[19]
  GI50: > 100 µM (inactive)
[20]
  GI50: > 100 µM (inactive)
[21]
  GI50: > 100 µM (inactive)
[22]
  GI50: > 100 µM (inactive)
[23]
  GI50: > 100 µM (inactive)
[24]
  GI50: > 100 µM (inactive)
[25]
  GI50: > 100 µM (inactive)
[26]
  GI50: > 100 µM (inactive)
[27]
  GI50: > 100 µM (inactive)
[28]
  GI50: > 100 µM (inactive)
[29]
  GI50: > 100 µM (inactive)
[30]
  GI50: > 100 µM (inactive)
[31]
  GI50: > 100 µM (inactive)
[32]
  GI50: > 100 µM (inactive)
[33]
  GI50: > 100 µM (inactive)
[34]
  GI50: > 100 µM (inactive)
[35]
  GI50: > 100 µM (inactive)
[36]
  GI50: > 100 µM (inactive)
[37]
  GI50: > 100 µM (inactive)
[38]
  GI50: > 100 µM (inactive)
[39]
  GI50: > 100 µM (inactive)
[40]
  GI50: > 100 µM (inactive)
[41]
  GI50: > 100 µM (inactive)
[42]
  GI50: > 100 µM (inactive)
[43]
  GI50: > 100 µM (inactive)
[44]
  GI50: > 100 µM (inactive)
[45]
  GI50: > 100 µM (inactive)
[46]
  GI50: > 100 µM (inactive)
[47]
  GI50: > 100 µM (inactive)
[48]
  GI50: > 100 µM (inactive)

## CCCNC(=O)c1cc(NC(=O)c2cc(NC(=O)/C=C/c3ccccc3)c(OC)c(OC)c2)c(OC)c(OC)c1
[1]
  GI50: 2.42 µM (inactive)
[3]
  GI50: 13.8 µM (inactive)
[4]
  GI50: > 100 µM (inactive)
[49]
  GI50: 11.4 µM (inactive)
[50]
  GI50: 11.4 µM (inactive)
[6]
  GI50: 3.61 µM (inactive)
[7]
  GI50: 5.87 µM (inactive)
[8]
  GI50: 9.33 µM (inactive)
[9]
  GI50: 5.64 µM (inactive)
[10]
  GI50: 6.87 µM (inactive)
[11]
  GI50: > 100 µM (inactive)
[13]
  GI50: 15.8 µM (inactive)
[14]
  GI50: 14.8 µM (inactive)
[51]
  GI50: 4.11 µM (inactive)
[15]
  GI50: 38.4 µM (inactive)
[16]
  GI50: 2.49 µM (inactive)
[17]
  GI50: 92.3 µM
[18]
  GI50: 11.8 µM (inactive)
[19]
  GI50: 4.01 µM (inactive)
[20]
  GI50: 8.28 µM (inactive)
[21]
  GI50: 48.9 µM (inactive)
[52]
  GI50: 14.5 µM (inactive)
[53]
  GI50: 2.54 µM (inactive)
[54]
  GI50: > 100 µM (inactive)
[22]
  GI50: > 100 µM (inactive)
[23]
  GI50: 24.8 µM (inactive)
[24]
  GI50: 0.248 µM (active)
[25]
  GI50: 4.51 µM (inactive)
[26]
  GI50: 5.7 µM (inactive)
[27]
  GI50: 7.62 µM (inactive)
[28]
  GI50: 14.2 µM (inactive)
[55]
  GI50: 0.0216 µM (active)
[29]
  GI50: 2.05 µM (inactive)
[56]
  GI50: 12 µM (inactive)
[30]
  GI50: 7.94 µM (inactive)
[31]
  GI50: 1.92 µM (inactive)
[32]
  GI50: 3.08 µM (inactive)
[33]
  GI50: 0.148 µM (active)
[34]
  GI50: 3.16 µM (inactive)
[35]
  GI50: 1.26 µM (inactive)
[36]
  GI50: > 100 µM (inactive)
[37]
  GI50: 12.4 µM (inactive)
[38]
  GI50: 17.8 µM (inactive)
[39]
  GI50: 4.41 µM (inactive)
[57]
  GI50: 27 µM (inactive)
[40]
  GI50: 12.7 µM (inactive)
[41]
  GI50: 2.96 µM (inactive)
[43]
  GI50: 6.14 µM (inactive)
[44]
  GI50: 7.83 µM (inactive)
[58]
  GI50: 11.8 µM (inactive)
[45]
  GI50: 7.98 µM (inactive)
[46]
  GI50: > 100 µM (inactive)
[47]
  GI50: 5.6 µM (inactive)
[48]
  GI50: 4.72 µM (inactive)
